Patent US20230279020A9, “CARM1 INHIBITORS AND USES THEREOF” (Epizyme, Inc., priority 2013, published 2023)
pIC50: −log10 of the molar value.

Molecular target: Human CARM1 (PRMT4) (Homo sapiens (Human), UniProt Q86X55)
Test: CARM1 enzyme assay on peptide substrate (3H-SAM Flashplate)
Settings: Biochemical potencies, classification codes; read-out: Biochem IC50

Chain of Human CARM1 (PRMT4) (Q86X55 other isoform, or with tags, fused parts or gaps isoform Q86X55-1): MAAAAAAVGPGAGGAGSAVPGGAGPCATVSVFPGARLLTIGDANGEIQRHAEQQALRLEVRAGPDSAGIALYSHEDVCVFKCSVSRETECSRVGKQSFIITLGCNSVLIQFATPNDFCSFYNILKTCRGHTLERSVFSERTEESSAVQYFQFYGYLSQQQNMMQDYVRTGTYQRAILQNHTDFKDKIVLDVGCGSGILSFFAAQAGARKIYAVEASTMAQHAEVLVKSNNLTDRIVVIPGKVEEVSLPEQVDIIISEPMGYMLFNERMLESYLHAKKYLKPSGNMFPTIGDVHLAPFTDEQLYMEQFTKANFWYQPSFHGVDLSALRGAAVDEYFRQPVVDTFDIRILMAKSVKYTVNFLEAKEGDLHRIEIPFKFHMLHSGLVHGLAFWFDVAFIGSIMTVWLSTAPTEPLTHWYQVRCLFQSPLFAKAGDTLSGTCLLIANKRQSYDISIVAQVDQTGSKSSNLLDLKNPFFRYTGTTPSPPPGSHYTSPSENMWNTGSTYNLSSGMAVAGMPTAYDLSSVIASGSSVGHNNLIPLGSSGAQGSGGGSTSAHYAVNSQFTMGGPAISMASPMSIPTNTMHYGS

SMILES | pIC50
CNCC(O)COc1cccc(-c2nc(-c3c(C)noc3C)c(C)c(N3CCO[C@H](CN(C)C)C3)n2)c1 (some centres unmarked) [Example 151-1a] | > 7.00
CCOC(=O)N1CC[C@H](Nc2nc(-c3cc(OC[C@H](O)CNC)ccc3Cl)nc(-c3c(C)noc3C)c2Cl)C1 [Example 151-3] | > 7.00
CC[C@@H]1CN(c2nc(-c3cccc(OCC(O)CNC)c3)nc(-c3c(C)noc3C)c2C)CCN1S(=O)(=O)CC (some centres unmarked) [Example 152-1a] | > 7.00
CNC[C@@H](O)COc1ccc(Cl)c(-c2nc(N[C@H]3CO[C@@H](C)C3)c(C)c(-c3c(C)noc3C)n2)c1 [Example 152-3] | > 7.00
CC[C@@H]1CN(c2nc(-c3cccc(OCC(O)CNC)c3)nc(-c3c(C)noc3C)c2C)CCN1S(C)(=O)=O (some centres unmarked) [Example 153-1a] | > 7.00
CC[C@H]1CN(c2nc(-c3cccc(OCC(O)CNC)c3)nc(-c3c(C)noc3C)c2C)CCN1S(C)(=O)=O (some centres unmarked) [Example 155-1a] | > 7.00
CNC[C@@H](O)COc1ccc(Cl)c(-c2nc(N[C@@H]3CCO[C@H](C)C3)c(Cl)c(-c3c(C)noc3C)n2)c1 [Example 155-3] | > 7.00
CNC[C@@H](O)COc1ccc(Cl)c(-c2nc(-c3c(C)noc3C)c(C)c(N3Cc4cc(Cl)cnc4C3)n2)c1 [Example 156-3] | > 7.00
CNC[C@@H](O)COc1ccc(Cl)c(-c2nc(-c3c(C)noc3C)c(C)c(N3CCC4(CC3)CN(C3CC3)C4)n2)c1 [Example 158-3] | > 7.00
CNCC(O)COc1cccc(-c2nc(NC3(C)CCOCC3)c(F)c(-c3c(C)noc3C)n2)c1 (centres unmarked) [Example 159-1a] | > 7.00
CNC[C@@H](O)COc1ccc(Cl)c(-c2nc(-c3c(C)noc3C)c(C)c(N3Cc4ccncc4C3)n2)c1 [Example 159-3] | > 7.00
CNC[C@@H](O)COc1ccc(Cl)c(-c2nc(NC[C@H]3CCCN3C(=O)OC(C)C)c(C)c(-c3c(C)noc3C)n2)c1 [Example 160-3] | > 7.00
CNCC(O)COc1cccc(-c2nc(-c3c(C)noc3C)c(C)c(N3CCN(C(=O)OCC(F)F)CC3)n2)c1 (centres unmarked) [Example 161-1a] | > 7.00
CNCC(O)COc1cccc(-c2nc(-c3c(C)noc3C)c(C)c(N3CC[C@H](C(=O)N(C)C)C3)n2)c1 (some centres unmarked) [Example 162-1a] | > 7.00
CNC[C@@H](O)COc1ccc(Cl)c(-c2nc(N[C@@H]3CO[C@@H](C)C3)c(C)c(-c3c(C)noc3C)n2)c1 [Example 162-3] | > 7.00

The remaining lines, values ahead:

pIC50 | SMILES
> 7.00 | CNC[C@@H](O)COc1ccc(Cl)c(-c2nc(N[C@H]3CCO[C@@H](C)C3)c(Cl)c(-c3c(C)noc3C)n2)c1 [Example 149-3]
> 7.00 | CNCC(O)COc1cccc(-c2nc(-c3c(C)noc3C)c(C)c(N3CCO[C@@H](CN(C)S(C)(=O)=O)C3)n2)c1 (some centres unmarked) [Example 150-1a]
> 7.00 | CCOC(=O)N1CC[C@H](Nc2nc(-c3cc(OC[C@H](O)CNC)ccc3Cl)nc(-c3c(C)noc3C)c2C)C1 [Example 150-3]
> 7.00 | CCOC(=O)N1CCCC[C@@H]1CNc1nc(-c2cc(OC[C@H](O)CNC)ccc2Cl)nc(-c2c(C)noc2C)c1Cl [Example 153-3]
> 7.00 | CC[C@H]1CN(c2nc(-c3cccc(OCC(O)CNC)c3)nc(-c3c(C)noc3C)c2C)CCN1S(=O)(=O)CC (some centres unmarked) [Example 154-1a]
> 7.00 | CCOC(=O)N1CCCC[C@@H]1CNc1nc(-c2cc(OC[C@H](O)CNC)ccc2Cl)nc(-c2c(C)noc2C)c1C [Example 154-3]
> 7.00 | CNC[C@@H](O)COc1cccc(-c2nc(-c3c(C)noc3C)c(C)c(-c3cn(S(C)(=O)=O)c4ncncc34)n2)c1 [Example 156-1a]
> 7.00 | CNCC(O)COc1cccc(-c2nc(NC(C)C3CCOCC3)c(C)c(-c3c(C)noc3C)n2)c1 (centres unmarked) [Example 157-1a]
> 7.00 | CNC[C@@H](O)COc1ccc(Cl)c(-c2nc(-c3c(C)noc3C)c(C)c(N3Cc4cc(F)cnc4C3)n2)c1 [Example 157-3]
> 7.00 | CNCC(O)COc1cccc(-c2nc(C(=O)NC3CCN(C)CC3)cc(-c3c(C)noc3C)n2)c1 (centres unmarked) [Example 160-1a]
> 7.00 | CCOC(=O)N1CCOC[C@@H]1COc1nc(-c2cc(OC[C@H](O)CNC)ccc2Cl)nc(-c2c(C)noc2C)c1C [Example 161-3]
